Reference: patent publication US20080274076A1, “Composition for Use in Controlling Aedes Aegypti Mosquitoes” (priority 2005, published 2008)

Columns and labels:
Aedes aegypti mosquitoes [1] = assay: field test of the luring effect: open water tanks, one treated with heneicosane solution; format: in vivo
Experimental: Fifteen open tanks with water filled to the top were kept in the open. All the tanks were made of same material, were of the same size and contained same amount of water from the same source. The tanks were numbered consecutively and allowed to remain for a week.
All the fifteen tanks were drained of water and thoroughly cleaned. Subsequently, they were filled with water from the same source. In tank No. 1, a predetermined amount of a solution of heneicosane in n-hexane (1% w/v) was added. After fifteen days, water from each tank was analysed.
Example No. 4 was repeated 14 times with heneicosane being added in tank Nos. 2 to 15 consequentially.
Example Nos. 4 and 5 were repeated with heneicosane dissolved in n-pentane.
The above example was repeated with varying concentrations of heneicosane in the solvent.

Aedes aegypti mosquitoes [2] = assay: oviposition attractant effect of semio-chemicals identified in larval conditioned water; format: in vivo
From the text: The present invention also relates to a process for the preparation of compositions for use in lure and/or killing of Aedes aegypti mosquitoes. The present invention is based on the unexpected finding that Aedes aegypti mosquitoes tend to lay eggs in stagnant water where eggs of the same species of mosquitoes had been laid previously. This led the inventors to analyse various samples of water which in turn led to the finding that water in which eggs had previously been laid by Aedes aegypti mosquitoes and which had hatched into larval stage contained various semio-chemicals. Analysis of these semio-chemicals identified them as heneicosane, nonacosane, octadecane, isopropyl myristate and docosane. […] When, stagnant water in which Aedes aegypti mosquitoes had bred earlier was left untouched the incidence of further egg laying in the same water and thriving of larval population increased. […]
Aedes aegypti mosquitoes are bred and the water is collected for isolation where the mosquitoes are at larval stage. […] The extractant is analysed by various spectral techniques like IR, NMR and GCMS and the five semio-chemicals identified are heneicosane, nonacosane, octadecane, isopropyl myristate and decosane.

SMILES: CCCCCCCCCCCCCCCCCCCCC [heneicosane, n-heneicosane]
- attraction of mosquitoes to lay eggs in the treated tank (Aedes aegypti mosquitoes [1]; Example 4 repeated 14 times with heneicosane added in tank Nos. 2 to 15 consequentially): each time the tank containing heneicosane attracted Aedes aegypti mosquitoes to lay their eggs therein
- luring result with another solvent (Aedes aegypti mosquitoes [1]; Example Nos. 4 and 5 repeated with heneicosane dissolved in n-pentane): The results were exactly the same
- mosquito larvae found in tanks (egg laying lured to treated tank) (Aedes aegypti mosquitoes [1]; field conditions, 15 open tanks, solution of heneicosane in n-hexane (1% w/v) added to tank No. 1, after fifteen days): only tank No. 1 containing the heneicosane contained mosquito larvae
- effectiveness as oviposition attractant among the five identified semio-chemicals (Aedes aegypti mosquitoes [2]; compared with nonacosane, octadecane, isopropyl myristate and docosane): most effective oviposition attractant
- site of egg laying, stagnant water versus water containing heneicosane (Aedes aegypti mosquitoes [2]; stagnant water kept alongside water containing heneicosane): the entire egg laying took place only in water containing heneicosane
